Laboratory results: patent US10543189B2, “2-acetylnaphtho[2,3-b]furan -4,9-dione for use on treating cancer” (Boston Biomedical, Inc., priority 2013, dated 2020)
Like-named read-outs stand apart in the source and are kept apart here.

Key:
[1] = Phase 1 extension study of higher strength capsule (DP2A): pharmacokinetics; type: in vivo; conditions: human, plasma, oral, 500 mg; for AUC(0-t): read-out: AUC0-24
Source text: However, with the higher strength capsules, we observed worsening gastrointestinal adverse effects including nausea, vomiting, and diarrhea in patients.
Additional studies were run using an oral formulation of the Compound of the Invention, specifically a higher strength capsule formulation (DP2A). As described herein, the Compound of the Invention blocks cancer stem cell (CSC) self-renewal and induces cell death in CSC as well as non-stem cancer cells by inhibiting Stat3, β-catenin, and Nanog pathways, and has shown potent anti-tumor and anti-metastatic activities pre-clinically. […] The studies described herein were designed as a phase 1 extension study to evaluate a formulation designed for pivotal trials to determine pharmacokinetics (PK) in patients with advanced cancer.
On Day 1, patients received a single 500 mg dose of an oral administration formulation of the Compound of the Invention (DP1). On Day 4 and Day 8, a higher strength capsule designed for pivotal trials (DP2A) was given with fasting then fed conditions. DP2A was then administered daily until disease progression or unacceptable toxicity. Endpoints were safety, PK and preliminary anticancer activity.

[2] = Phase I dose escalation trial: safety, tolerability, adverse events; type: in vivo, human; conditions: Phase 1, dose escalated from 20 mg to 2000 mg/day
Source text: The most common adverse events were: diarrhea, nausea, and fatigue. Grade 3 or greater events include: fatigue and diarrhea.

[3] = test system: CD44^high cells (FaDu); assay: CD44high sphere growth; type: cell-based; conditions: FACS-isolated from FaDu, sphere culture, five days of treatment, FIG. 5
Procedure: CD44^high cells were isolated by FACS (FaDu) and were cultured in the absence of attachment and serum for 5 days to form primary spheres. Primary spheres were then dissociated in Accumax (eBioscience, San Diego, Calif.) to single cells, and were cultured as above for 72 hours before the addition of the indicated concentrations of therapeutic agents. After five days of treatment, representative sphere images were captured.
CD44^high cells were isolated by FACS (FaDu) and their growth was blocked by a Compound of the Invention (FIG. 5).

[4] = test system: β-catenin; assay: β-catenin protein levels in cancer cell lines; type: cell-based; conditions: in vitro within cancer cell lines
Source text: (§1) Understanding the clinical relevance of the cancer stemness markers and identifying their predictive response to the Compound of the Invention is used herein to assist clinical development by selecting patients that will most likely to derive clinical benefit. In some embodiments, the methods provided herein use one or more well-known cancer stemness marker(s), such as, for example, the expression of p-STAT3 and/or other cancer stem cell related proteins such as β-catenin and NANOG. All these proteins can be easily detected using any of a variety of art-recognized techniques. In some embodiments, the cancer sternness marker is detected with immunohistochemistry with antibodies. Using the archival tissue samples collected from the phase I trial with the Compound of the Invention, the patient response to the Compound of the Invention was analyzed based on biomarker status. […] A significant improvement in survival was detected for patients with nuclear β-Catenin localization compared with patients having β-catenin localized to the cell membrane, HR=0.043, p value <0.001. As further evidence, in an in vitro study screening a panel of cancer cells, the cell lines with nuclear β-Catenin show a lower IC50 for the Compound of the Invention. […] Thus, STAT3 activation is involved in nuclear β-catenin regulation. […]

[5] = test system: phosphorylated STAT3 (p-STAT3); assay: Immunohistochemistry of CRC patient tumor tissue for p-STAT3; type: in vivo, human; conditions: 100 mg/kg QD (single daily dosage), FIG. 3A
Procedure: (§2) CRC patient's archival tumor tissue samples were analyzed through immunohistochemistry (IHC) using labeled antibodies against phosphorylated STAT3 (p-STAT3). […] For instance, 40% of the patients with high p-STAT3 levels before treatment survived longer than 100 weeks whereas only 10% of those with low or no p-STAT3 levels before treatment survived beyond 100 weeks. This further confirms that the Compound of the Invention downregulates that STAT3 pathway, and that the STAT3 pathway is implicated in colorectal cancers.

[6] = test system: cancer cells; assay: Antitumor activity of the compound in patient urine; type: cell-based; conditions: compound in patient urine tested against cancer cells
[7] = Phase I dose escalation trial: pharmacokinetic profile; type: in vivo, human
[8] = test system: colorectal cancer (CRC); assay: Survival of treated CRC patients by biomarker status or exposure; type: in vivo, human
Source text: FIG. 6A depicts the relationship between Progression Free Survival (PFS) and exposure of a Compound of the Invention in colorectal cancer (CRC) patients. […] FIG. 6B depicts the overall survival (OS) in evaluable CRC patients. OS of evaluable CRC patients treated with a Compound of the Invention (defined as ≥4 weeks of Compound of the Invention, 80% compliance) compared with historical controls [Cetuximab for the treatment of colorectal cancer, 2007, N. Engl. J. Med. 357 2040-2048]. FIG. 6C depicts PFS in evaluable CRC patients. PFS of evaluable CRC patients treated with a Compound of the Invention (defined as ≥4 weeks of Compound of the Invention, 80% compliance) compared historical controls (Open-Label Phase III Trial of Panitumumab Plus Best Supportive Care Compared with Best Supportive Care Alone in Patients with Chemotherapy-Refractory Metastatic Colorectal Cancer, 2007, J. Clin. Onc. 25: 1658-1665].
Understanding the clinical relevance of the cancer stemness markers and identifying their predictive response to the Compound of the Invention is used herein to assist clinical development by selecting patients that will most likely to derive clinical benefit. In some embodiments, the methods provided herein use one or more well-known cancer stemness marker(s), such as, for example, the expression of p-STAT3 and/or other cancer stem cell related proteins such as β-catenin and NANOG. All these proteins can be easily detected using any of a variety of art-recognized techniques. In some embodiments, the cancer sternness marker is detected with immunohistochemistry with antibodies. Using the archival tissue samples collected from the phase I trial with the Compound of the Invention, the patient response to the Compound of the Invention was analyzed based on biomarker status. […] A significant improvement in survival was detected for patients with nuclear β-Catenin localization compared with patients having β-catenin localized to the cell membrane, HR=0.043, p value <0.001. As further evidence, in an in vitro study screening a panel of cancer cells, the cell lines with nuclear β-Catenin show a lower IC50 for the Compound of the Invention. […] Thus, STAT3 activation is involved in nuclear β-catenin regulation. In addition, β-catenin status is a biomarker for predicting responsiveness of CRC patients to the Compound of the Invention.
as §2
CRC patient's archival tumor tissue samples were analyzed through immunohistochemistry (IHC) using labeled antibodies against β-catenin. […] For instance, close to 40% of the patients with high nuclear β-catenin levels before treatment survived longer than 100 weeks whereas none of those with high levels of membranous β-catenin survived beyond 25 weeks. This further confirms that the Compound of the Invention disrupts or somehow modulates the β-catenin function, and that the β-catenin pathway is implicated in colorectal cancers.

[9] = test system: panel of cancer cells; assay: In vitro screening of a panel of cancer cells; type: cell-based
Source text: as §1

[10] = Patient 0053, single 500 mg dose - fed
[11] = Patient 0054, single 500 mg dose - fed
[12] = Patient 0061, single 500 mg dose - fed
[13] = Patient 0070, single 500 mg dose - fed
[14] = human, plasma, oral, 20 mg, Total Daily Dose 20 (mg), qd, patient plasma

Question: With `CC(=O)c1cc2c(o1)C(=O)c1ccccc1C2=O` [Compound 1, 2-acetylnaphtho[2,3-b]furan-4,9-dione] as the compound, how does the Cmax [1, 10] read?
Answer: 6610 nM

Question: What about the AUC(0-t) [1, 10] of the same compound?
Answer: 79.6 µM·h

Question: What about the Cmax [1, 11] of the same compound?
Answer: 6250 nM

Question: What about the AUC(0-t) [1, 11] of the same compound?
Answer: 49.8 µM·h

Question: And the Cmax [1, 12]?
Answer: 1540 nM

Question: What about the AUC(0-t) [1, 12] of the same compound?
Answer: 10.6 µM·h

Question: And the Cmax [1, 13]?
Answer: 2250 nM

Question: And the AUC(0-t) [1, 13]?
Answer: 20.1 µM·h

Question: What about the “maximum tolerated dose (MTD)” value [2] of the same compound?
Answer: not reached

Question: What about the “CD44^high cells growth” value [3] of the same compound?
Answer: blocked

Question: What about the β-catenin protein levels [4] of the same compound?
Answer: reduced

Question: What about the “p-STAT3 in the patient tissue after treatment (IHC)” value [5] of the same compound?
Answer: almost no longer any detectable p-STAT3

Question: What about the “antitumor activity in patient urine” value [6] of the same compound?
Answer: remained potent against cancer cells

Question: And the “clearance from the blood” value ([7]; 20 mg QD, humans)?
Answer: rapidly cleared from the blood

Question: And the “concentration of the compound in urine of the patient” value ([7]; 20 mg daily administration)?
Answer: surprisingly high concentration

Question: And the AUC [7, 14]?
Answer: 2.7 µM·h

Question: And the Cmax [7, 14]?
Answer: 490 nM

Question: And the AUC ([7]; human, plasma, oral, 40 mg, Total Daily Dose 40 (mg), qd, patient plasma)?
Answer: 3.62 µM·h

Question: What about the AUC ([7]; human, plasma, oral, 80 mg, Total Daily Dose 80 (mg), qd, patient plasma) of the same compound?
Answer: 13.3 µM·h

Question: And the “patients surviving beyond 25 weeks” value ([8]; CRC patients (N=13) with high levels of membranous β-catenin)?
Answer: none

Question: And the “patients surviving longer than 100 weeks” value ([8]; CRC patients (N=13) with high nuclear β-catenin levels before treatment)?
Answer: ~40%

Question: What about the “patients surviving longer than 100 weeks” value ([8]; CRC patients (N=13) with high p-STAT3 levels before treatment) of the same compound?
Answer: 40%

Question: What about the “patients surviving beyond 100 weeks” value ([8]; CRC patients (N=13) with low or no p-STAT3 levels before treatment) of the same compound?
Answer: 10%

Question: What about the “Progression Free Survival (PFS), plasma concentrations above 2.0 uM for greater than 4 hours versus not reaching that exposure” value ([8]; CRC patients, FIG. 6A) of the same compound?
Answer: statistically significant difference

Question: And the “survival, high level of p-STAT3 or NANOG versus low or negative levels” value ([8]; CRC patients, phase I archival tissue)?
Answer: trend of increased survival

Question: What about the “survival HR, nuclear β-Catenin localization versus β-catenin localized to the cell membrane” value ([8]; CRC patients, phase I archival tissue, p value <0.001) of the same compound?
Answer: 0.043

Question: And the “IC50 in cell lines with nuclear β-Catenin” value [9]?
Answer: lower IC50
